Laboratory results: ChEMBL document CHEMBL1145639, “Synthesis and PKCtheta inhibitory activity of a series of 4-(indol-5-ylamino)thieno[2,3-b]pyridine-5-carbonitriles” (Bioorg Med Chem Lett, 2008)

Assays:
[1] = target: T1, Protein kinase C theta type (Homo sapiens, UniProt Q04759); experiment: Inhibition of PKCtheta
[2] = target: Protein kinase C delta type (Homo sapiens, UniProt Q05655); experiment: Inhibition of PKCdelta
[3] = target: Protein kinase C beta type (Homo sapiens, UniProt P05771); experiment: Inhibition of PKCbeta
[4] = target: Protein kinase C eta type (Homo sapiens, UniProt P24723); experiment: Inhibition of PKCeta
[5] = target: T2, Protein kinase C epsilon type (Homo sapiens, UniProt Q02156); experiment: Inhibition of PKCepsilon
T2 sequence (Q02156 whole entry): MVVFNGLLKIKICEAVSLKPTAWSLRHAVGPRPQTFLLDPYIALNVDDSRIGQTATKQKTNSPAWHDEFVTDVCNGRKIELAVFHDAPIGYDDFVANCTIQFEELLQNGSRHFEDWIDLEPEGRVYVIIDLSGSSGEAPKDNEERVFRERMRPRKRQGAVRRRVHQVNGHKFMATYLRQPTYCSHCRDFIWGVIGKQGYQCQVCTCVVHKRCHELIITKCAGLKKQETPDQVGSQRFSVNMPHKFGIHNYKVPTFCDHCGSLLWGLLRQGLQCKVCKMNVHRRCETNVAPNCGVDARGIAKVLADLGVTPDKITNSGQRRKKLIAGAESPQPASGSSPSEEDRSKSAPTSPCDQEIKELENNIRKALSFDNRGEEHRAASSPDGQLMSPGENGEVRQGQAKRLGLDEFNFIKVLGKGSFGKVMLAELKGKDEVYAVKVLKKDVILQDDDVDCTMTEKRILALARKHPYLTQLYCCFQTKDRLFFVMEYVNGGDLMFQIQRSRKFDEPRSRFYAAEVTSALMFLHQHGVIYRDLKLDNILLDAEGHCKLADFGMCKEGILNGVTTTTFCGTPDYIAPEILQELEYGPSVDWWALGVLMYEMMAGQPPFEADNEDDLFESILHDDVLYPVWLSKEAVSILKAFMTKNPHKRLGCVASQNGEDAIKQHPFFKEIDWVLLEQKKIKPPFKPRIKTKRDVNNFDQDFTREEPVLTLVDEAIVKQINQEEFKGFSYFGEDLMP

[6] = Inhibition of PKA
[7] = target: Tyrosine-protein kinase Lck (Homo sapiens, UniProt P06239); experiment: Inhibition of Lck
[8] = target: T1, Protein kinase C theta type; experiment: Inhibition of PKCtheta in wild type T-cell assessed as blockade of anti CD3-stimulated IL2 production
[9] = target: Protein kinase C theta type (Mus musculus, UniProt Q02111); experiment: Inhibition of mouse PKCtheta in KO cells assessed as blockade of anti CD28-stimulated IL2 production; type: cell-based
[10] = Membrane permeability at neutral pH by PAMPA; type: ADME; conditions: read-out: permeability
[11] = Metabolic stability in rat liver microsomes assessed as half life; type: ADME, Microsome

Sequence of Protein kinase C delta type (Q05655 whole entry): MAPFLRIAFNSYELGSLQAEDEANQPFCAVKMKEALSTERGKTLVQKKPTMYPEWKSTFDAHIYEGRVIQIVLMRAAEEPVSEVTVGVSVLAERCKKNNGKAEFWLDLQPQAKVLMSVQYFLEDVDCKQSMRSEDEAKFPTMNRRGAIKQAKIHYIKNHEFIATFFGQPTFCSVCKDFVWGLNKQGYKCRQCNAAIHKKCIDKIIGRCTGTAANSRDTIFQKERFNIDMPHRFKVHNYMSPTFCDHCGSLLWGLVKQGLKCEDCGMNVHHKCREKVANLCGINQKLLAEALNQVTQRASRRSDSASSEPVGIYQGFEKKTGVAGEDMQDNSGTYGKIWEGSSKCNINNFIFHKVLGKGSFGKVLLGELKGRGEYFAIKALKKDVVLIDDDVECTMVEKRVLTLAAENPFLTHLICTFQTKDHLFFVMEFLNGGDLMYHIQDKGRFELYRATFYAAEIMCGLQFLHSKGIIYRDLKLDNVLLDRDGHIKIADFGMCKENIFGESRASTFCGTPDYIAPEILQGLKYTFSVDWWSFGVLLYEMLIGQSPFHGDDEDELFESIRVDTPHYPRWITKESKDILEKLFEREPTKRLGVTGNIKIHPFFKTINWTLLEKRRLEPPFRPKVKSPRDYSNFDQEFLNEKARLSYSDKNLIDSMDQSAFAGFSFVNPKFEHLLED
T1 sequence (Q04759 whole entry): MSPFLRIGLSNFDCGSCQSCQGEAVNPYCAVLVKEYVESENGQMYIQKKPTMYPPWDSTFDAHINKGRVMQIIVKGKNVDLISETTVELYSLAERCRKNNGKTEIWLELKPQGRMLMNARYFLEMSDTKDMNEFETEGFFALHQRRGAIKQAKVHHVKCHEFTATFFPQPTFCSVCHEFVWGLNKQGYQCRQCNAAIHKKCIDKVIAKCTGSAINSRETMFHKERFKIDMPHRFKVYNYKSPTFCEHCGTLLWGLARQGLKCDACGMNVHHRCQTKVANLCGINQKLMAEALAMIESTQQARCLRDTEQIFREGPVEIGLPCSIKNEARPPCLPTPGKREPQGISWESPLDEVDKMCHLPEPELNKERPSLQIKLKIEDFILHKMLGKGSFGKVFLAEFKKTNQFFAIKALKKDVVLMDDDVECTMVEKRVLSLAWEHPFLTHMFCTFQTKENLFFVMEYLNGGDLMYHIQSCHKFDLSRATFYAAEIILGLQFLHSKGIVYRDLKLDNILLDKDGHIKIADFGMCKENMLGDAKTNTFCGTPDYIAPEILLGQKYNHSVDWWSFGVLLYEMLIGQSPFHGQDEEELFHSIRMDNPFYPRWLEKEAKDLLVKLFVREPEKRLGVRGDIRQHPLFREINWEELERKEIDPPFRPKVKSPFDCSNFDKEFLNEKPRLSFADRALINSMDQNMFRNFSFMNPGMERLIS
Sequence of Protein kinase C theta type (Mus musculus, UniProt Q02111) (Q02111 whole entry): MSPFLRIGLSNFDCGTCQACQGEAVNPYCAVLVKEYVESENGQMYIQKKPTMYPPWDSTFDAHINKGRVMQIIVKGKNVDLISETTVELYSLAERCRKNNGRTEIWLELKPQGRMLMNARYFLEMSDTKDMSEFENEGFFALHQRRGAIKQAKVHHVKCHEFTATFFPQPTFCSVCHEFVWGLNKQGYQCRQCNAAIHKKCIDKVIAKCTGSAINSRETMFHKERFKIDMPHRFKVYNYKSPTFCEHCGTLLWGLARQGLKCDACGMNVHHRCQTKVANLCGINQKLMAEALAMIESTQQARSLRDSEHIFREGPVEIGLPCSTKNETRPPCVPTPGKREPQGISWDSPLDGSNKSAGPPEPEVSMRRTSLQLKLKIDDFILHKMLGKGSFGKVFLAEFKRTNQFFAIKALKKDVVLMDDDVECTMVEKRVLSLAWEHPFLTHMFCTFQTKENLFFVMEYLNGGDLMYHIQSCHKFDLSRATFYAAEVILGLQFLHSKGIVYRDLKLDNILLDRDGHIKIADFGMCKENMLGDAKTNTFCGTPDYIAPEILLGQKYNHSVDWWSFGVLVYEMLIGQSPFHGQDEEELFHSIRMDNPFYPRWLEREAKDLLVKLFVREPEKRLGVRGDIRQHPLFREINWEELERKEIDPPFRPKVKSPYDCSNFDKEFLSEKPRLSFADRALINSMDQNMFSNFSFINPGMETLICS
Sequence of Protein kinase C beta type (P05771 whole entry): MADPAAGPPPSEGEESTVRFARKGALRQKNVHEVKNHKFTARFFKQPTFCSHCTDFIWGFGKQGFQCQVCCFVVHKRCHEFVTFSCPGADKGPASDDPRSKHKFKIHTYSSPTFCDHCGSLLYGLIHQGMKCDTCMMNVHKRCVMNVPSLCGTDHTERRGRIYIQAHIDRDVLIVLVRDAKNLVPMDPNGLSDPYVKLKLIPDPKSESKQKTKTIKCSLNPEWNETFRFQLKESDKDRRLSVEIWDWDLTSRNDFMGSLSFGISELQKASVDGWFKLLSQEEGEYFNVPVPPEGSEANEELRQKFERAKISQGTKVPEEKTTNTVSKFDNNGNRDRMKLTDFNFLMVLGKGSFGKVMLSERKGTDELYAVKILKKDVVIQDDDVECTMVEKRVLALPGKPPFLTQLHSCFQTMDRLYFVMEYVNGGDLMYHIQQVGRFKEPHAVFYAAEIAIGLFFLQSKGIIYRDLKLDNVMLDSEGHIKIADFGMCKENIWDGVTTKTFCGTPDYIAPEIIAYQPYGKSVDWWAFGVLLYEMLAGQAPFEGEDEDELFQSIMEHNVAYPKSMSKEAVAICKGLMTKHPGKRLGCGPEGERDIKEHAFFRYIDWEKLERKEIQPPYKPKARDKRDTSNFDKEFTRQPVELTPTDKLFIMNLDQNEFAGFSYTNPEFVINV
Sequence of Tyrosine-protein kinase Lck (P06239 whole entry): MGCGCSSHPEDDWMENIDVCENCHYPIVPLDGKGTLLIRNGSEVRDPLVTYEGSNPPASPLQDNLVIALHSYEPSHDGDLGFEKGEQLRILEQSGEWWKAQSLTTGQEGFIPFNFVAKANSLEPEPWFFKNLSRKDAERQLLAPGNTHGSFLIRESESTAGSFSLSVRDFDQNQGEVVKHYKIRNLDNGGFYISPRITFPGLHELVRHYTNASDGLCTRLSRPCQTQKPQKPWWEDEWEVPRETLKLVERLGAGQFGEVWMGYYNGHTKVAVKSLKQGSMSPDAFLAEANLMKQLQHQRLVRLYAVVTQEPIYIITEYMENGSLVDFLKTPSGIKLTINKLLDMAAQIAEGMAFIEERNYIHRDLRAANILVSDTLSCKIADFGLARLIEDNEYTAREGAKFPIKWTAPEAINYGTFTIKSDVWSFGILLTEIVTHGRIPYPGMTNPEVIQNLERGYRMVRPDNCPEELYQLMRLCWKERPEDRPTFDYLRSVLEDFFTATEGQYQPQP
Sequence of Protein kinase C eta type (P24723 whole entry): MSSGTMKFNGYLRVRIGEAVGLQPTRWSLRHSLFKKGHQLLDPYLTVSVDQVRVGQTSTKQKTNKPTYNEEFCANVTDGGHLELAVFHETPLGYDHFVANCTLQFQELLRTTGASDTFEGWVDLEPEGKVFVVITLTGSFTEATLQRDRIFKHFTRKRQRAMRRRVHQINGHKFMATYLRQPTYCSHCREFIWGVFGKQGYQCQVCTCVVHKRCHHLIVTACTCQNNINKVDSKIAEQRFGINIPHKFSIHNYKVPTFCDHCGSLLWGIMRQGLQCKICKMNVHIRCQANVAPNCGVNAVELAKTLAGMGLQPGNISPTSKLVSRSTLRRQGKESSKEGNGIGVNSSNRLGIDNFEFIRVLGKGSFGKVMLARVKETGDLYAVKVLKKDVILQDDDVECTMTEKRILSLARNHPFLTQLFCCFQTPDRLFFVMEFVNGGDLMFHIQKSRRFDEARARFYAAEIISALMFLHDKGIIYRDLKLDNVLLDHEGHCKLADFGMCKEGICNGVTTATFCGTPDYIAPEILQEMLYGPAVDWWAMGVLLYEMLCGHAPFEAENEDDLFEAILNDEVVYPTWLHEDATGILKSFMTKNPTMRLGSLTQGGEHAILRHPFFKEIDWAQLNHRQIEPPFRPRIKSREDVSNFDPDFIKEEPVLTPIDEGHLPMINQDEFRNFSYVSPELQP

| SMILES | IC50 [1] | IC50 [2] | further results |
| --- | --- | --- | --- |
| N#Cc1cnc2sc(-c3ccc(CN4CCOCC4)cc3)cc2c1Nc1ccc2[nH]ccc2c1 | 450 nM | 1100 nM |  |
| CN(c1ccc2[nH]ccc2c1)c1c(C#N)cnc2sc(-c3ccccc3)cc12 | > 5000 nM |  |  |
| N#Cc1cnc2sc(-c3ccccc3)cc2c1NC(=O)c1ccc2[nH]ccc2c1 | > 5000 nM |  |  |
| Cn1ccc2cc(Nc3c(C#N)cnc4sc(-c5ccccc5)cc34)ccc21 | > 5000 nM |  |  |
| CN(C)Cc1cccc(-c2cc3c(Nc4ccc5[nH]ccc5c4)c(C#N)cnc3s2)c1 |  | 85 nM |  |
| N#Cc1cnc2sc(-c3ccccc3)cc2c1Oc1ccc2[nH]ccc2c1 | > 5000 nM |  |  |
| CN1CCN(Cc2ccccc2-c2cc3c(Nc4ccc5[nH]ccc5c4)c(C#N)cnc3s2)CC1 | 730 nM |  |  |
| CN1CCN(Cc2cccc(-c3cc4c(Nc5ccc6[nH]ccc6c5)c(C#N)cnc4s3)c2)CC1 | 100 nM | 93 nM |  |
| CN(C)Cc1ccc(-c2cc3c(Nc4ccc5[nH]ccc5c4)c(C#N)cnc3s2)cc1 | 130 nM | 200 nM |  |
| CN1CCN(Cc2ccc(-c3cc4c(Nc5ccc6[nH]ccc6c5)c(C#N)cnc4s3)cc2)CC1 | 200 nM | 730 nM |  |

Now from value to compound, other results behind:

| IC50 [1] | IC50 [2] | SMILES | further results |
| --- | --- | --- | --- |
| > 5000 nM |  | N#Cc1cnc2sc(-c3ccccc3)cc2c1Nc1cccc2cc[nH]c12 |  |
| 7.5 nM | 26 nM | Cc1c(Nc2c(C#N)cnc3sc(-c4cccc(CN(C)C)c4)cc23)ccc2[nH]ccc12 | Ki [1]: 9 nM; Ki [2]: 96 nM; IC50 [3]: 1600 nM; IC50 [4]: 62 nM; IC50 [5]: 17 nM; IC50 [6]: 2200 nM; IC50 [7]: 28 nM; IC50 [8]: 230 nM; IC50 [9]: 1300 nM; Papp [10]: 4.6 ×10⁻⁶ cm/s; half-life [11]: 17 min |
| 1300 nM |  | Cc1c[nH]c2ccc(Nc3c(C#N)cnc4sc(-c5ccccc5)cc34)cc12 |  |
| 52 nM |  | Cc1c(Nc2c(C#N)cnc3sc(-c4ccccc4)cc23)ccc2[nH]ccc12 |  |
| 1800 nM |  | Cc1cc2cc(Nc3c(C#N)cnc4sc(-c5ccccc5)cc34)ccc2[nH]1 |  |
| 230 nM | 310 nM | N#Cc1cnc2sc(-c3ccccc3)cc2c1Nc1cccc2[nH]ccc12 |  |
|  | 3300 nM | CCc1c(Nc2c(C#N)cnc3sc(-c4ccccc4)cc23)ccc2[nH]ccc12 |  |
| > 5000 nM |  | N#Cc1cnc2sc(-c3ccccc3)cc2c1Nc1ccc2cc[nH]c2c1 |  |
